Laboratory results from publication PMC7754465, “Multiparameter Kinetic Analysis for Covalent Fragment Optimization by Using Quantitative Irreversible Tethering (qIT)” (Chembiochem, 2020).

How the values were obtained:
[1] = target: T1, Cdk2(ES) = Cdk2(F80C,C177A) (Homo sapiens, UniProt P24941, C177A/F80C); assay: quantitative irreversible tethering (qIT): rate of cysteine modification of Cdk2(ES); assay type: binding; details: for covalent SAR by REF-based qIT analysis: compared with acrylamide 1 or parent analogue; for kinact/KI at 500 µM: Cdk2(ES) 5 μM, read-out: Cdk2(ES): kobs/[I]
T1 construct: GST (N, cleaved yes); made in house; host or cells: E. coli Tuner(DE3)
Experimental: (§1) Figure 2 Comparison of previous and current applications of Quantitative irreversible tethering (qIT). a) Overview of rate determination. A cysteine‐containing biomolecule is treated with covalent fragments under pseudo‐first‐order conditions. Reaction progress is followed by discrete measurement of free cysteine concentration by using the fluorogenic probe CPM, and rate constants (k obs) are derived from exponential regression analysis. b) Comparison of the reactivity profile of each fragment with the POI and GSH typically classes them as unreactive, reactive but non‐selective or reactive and selective. c) Quantification of kinetic POI/GSH selectivity facilitates hit identification. d) The observed rate of reaction between the POI and hit fragment is determined at a range of ligand concentrations by using qIT. Subsequent hyperbolic regression analysis is used to derive K i and k inact to facilitate comprehensive covSAR analysis.
Therefore, we set out to develop novel classes of electrophile sensitive kinase inhibitors using a covalent fragment approach. Accordingly, we screened a 138‐member library of diverse cysteine‐reactive fragments at 500 μM against Cdk2(ES) and GSH by using the qIT platform and monitored the kinetics of cysteine‐modification over 24 hours. […] Using three standard deviations over the geometric mean REF as the statistical cut‐off for defining hit fragments (REF >27.9) yielded two acrylamide fragments, tetrahydroquinoline 1 (REF=81) and pyrimidine S1 (REF=64) for further investigation (Figures 3c and S2). […]
D. Rate determination by qIT
Reaction-plate setup: Each well of a 96-well PCR plate was charged with 60–100 µL of target thiol (GSH or protein, 10 µM) and 4% w/v TCEP-agarose beads in 100 mM phosphate buffer (pH 7.5 or 8) and cooled to 4 °C. Reactions were started by addition of an equal volume of pre-cooled electrophile solution (1 mM, 2% DMSO) in 0.1 M phosphate buffer (final concentra-tion: thiol = 5 µM, electrophile = 0.5 mM, 2% w/v TCEP-agarose beads), with a minimum of 4 wells per plate used as DMSO/thiol only controls. After mixing, TCEP-agarose was pelleted by centrifugation (1,300 rpm, 1 min) and the plate incu-bated at 4 °C. CPM Quench: At a series of time points (typically around 0.25, 0.5, 1, 2, 6, 24, 48, 72 and 120 hours after reac-tion initiation), 3 µL aliquots of each reaction were quenched into a 384-well fluorescence plate (Corning – black, NBS) where each well was charged with 27 µL of CPM solution (1.39 µM) in 100 mM phosphate buffer (pH 7.5) (final concentration: thiol = 0.5 µM, CPM = 1.25 µM). Quenching was typically performed in duplicate and fluorescence plates were incubated at room temperature for 60 minutes before fluorescence intensity (excitation/emission: 384/470 nm) was measured on an EnVisionTM plate reader. Analysis: All analysis was performed using Prism 8.0 software (GraphPad). For each time point, the fluorescence of each reaction was normalized relative Cdk2(ES)/GSH only control = maximum signal, DMSO only = minimum signal. The normalized fluorescence for each reaction was plotted against time. A one phase exponential decay was fitted to each plot (Constraints: Y(0) > 0.8; 0 < plateau = 0), yielding a pseudo first-order rate constant.
Cdk2 mutations were introduced by PCR and cloned into pGEX6P1 Cdk2 (552), a gift from Jonathon Pines (Addgene plasmid # 61845) used to express GST-Cdk2(WT). GST-Cdk2(ES) = GST-Cdk2(F80C,C177A). All constructs were verified by se-quencing. pGEX6P1 cyclin A2 (amino acids 173-432) was generated by PCR and restriction digestion. GST-CAK1 was con-structed by PCR amplification of S.cerevisiae genomic DNA and the product cloned into pKEG-KG. All protein expression was performed using an adapted autoinduction protocol:[8] Plasmids were transformed into E. coli Tuner(DE3) and cultures grown in autoinduction media at 37 °C until OD600 = 0.9. The cultures were then incubated at 18 °C for a further 40 hours before […]

Cdk2(ES) = target: T2, Cdk2(ES) (Homo sapiens, UniProt P24941, C177A/F80C); assay: concentration-dependent qIT with hyperbolic regression (Ki, kinact); assay type: binding; details: for kinact/KI / Ki / kinact: acrylamide 25-500 μM, Cdk2(ES) 5 μM; for Ki / kinact: hyperbolic fit of kobs
T2 construct: GST (N, cleaved yes); made in house; host or cells: E. coli Tuner(DE3)
Experimental: Next we sought to carry out comprehensive kinetic analysis of the covalent binding to better understand the covSAR trends. Accordingly, the concentration dependency for the rate of reaction between Cdk2(ES) and key acrylamides 1, 6, 9 and 11 were determined using qIT (Figure 7c). To maintain pseudo‐first‐order reaction kinetics and stay within the solubility limits of the fragments, ligands were titrated from 25 to 500 μM. […] Indeed, comparing the binding conformations of the merged (9 and 11) and parent (1 and 6) fragments, we observe a subtle shift in the position of the core scaffolds and the orientation of the acrylamide link that likely explains the jump in potency that resulted from fragment merging. Overall, comparing acrylamides 9 and 11, we observe in a 3.7‐fold increase in k inact/K i and a 4.3‐fold increase in REF, and the consistency between these two orthogonal metrics of covalent fragment potency is encouraging for future applications of qIT to covalent fragment optimization.
H. Intact-protein mass spectrometry
Protein-mass data were obtained on a Waters micromass LC-TOF mass spectrometer in positive ion mode using electrospray ionization. Samples were chromatographed using an Acquity UPLC protein BEH C4 column (2.1 mm × 50 mm, 2.7 µm) with a flow rate of 30 µL/min. The injection volume was 5 µL of protein solution (5 µM) in 30 mM ammonium bicarbonate buffer con-taining 0.5% formic acid and 20% MeOH. The gradient used was 100% mobile phase A (0.1% formic acid in water/MeOH (19:1)) ramping linearly to 90% mobile phase B (0.1% formic acid in MeOH) over 5 minutes. The spectra were acquired from 500 to 2500 Da and deconvolution was performed with MassLynx (Waters), using the maximum entropy algorithm, over a mass range of […] with a mass step of 0.75. […]
Cdk2(WT) or Cdk2(ES) (1 mg) was sequentially incubated with aliquots of CAK1 (3 × 0.05 mg) at r.t. for 4 hours at a time in 1.5 mL of a 30 mM Tris/HCl buffer (pH 7.5) containing 10 mM MgCl2, 10 mM ATP and 3 mM DTT. As CAK1 appeared to be-come rapidly inactivated in the presence of pCdk2, three repetitions were required to drive the reaction to completion. The resulting solution was incubated with 50 µL of glutathione-Sepharose beads and filtered to remove remaining CAK1.
Kinase assays were performed by coupling the conversion of ATP into ADP to the oxidation of NADH (Abs = 340 nm) into NAD+, mediated by lactate dehydrogenase (LDH) and pyruvate kinase (PK). WT, mutant or ligand-conjugated pCdk2 (12.5 or 50 nM) was preincubated with Cyclin A2 (20 nM) in a buffer containing 50 mM Tris/HCl, 10 mM MgCl2, 5 mM DTT, 1 mM phosphoenolpyruvate, 0.24 mM NADH, 10 U mL-1 LDH, 14 U mL-1 PK and 5% DMSO at 37 °C for 30 minutes. Reactions were initiated by addition of 0.5 mM ATP and 0.24 mM substrate peptide (PKTPKKAKKL) and the absorbance at 340 nm was moni-tored for two hours. Assays were conducted at 37 °C and carried out in clear 384-well plates (Nunc) using a SpectraMax i3x plate reader (Molecular Devices) with a final volume of 20 µL in each well. After plotting Abs 340 against time, enzyme velocity was measured from the gradient during the linear phase of product accumulation.
Q. Concentration dependent qIT
The rate of reaction (kobs) for the reaction between each acrylamide (25, 50, 125, 250 and 500 µM) with Cdk2(ES) (5 µM) was determined us qIT (see D. Rate Determination by qIT) in duplicate. The average kobs was plotted against acrylamide concen-tration and hyperbolic regression analysis performed using Prism 8.0 software (GraphPad) to derive kinact and Ki.

[2] = qIT: rate of reaction with glutathione (intrinsic reactivity); assay type: physicochemical; details: fragment 0.5 mM, glutathione 5 μM
Experimental: Previously we described a fluorescence‐based platform for screening cysteine‐targeting covalent fragments called quantitative irreversible tethering (qIT). ^[19] The method measures and compares the rate of reactions of individual fragments with the protein‐of‐interest (POI) and GSH (Figure 2a and b).
as §1, with “covSAR analysis. […]” for “covSAR analysis.”

[3] = acrylamide 11 compared with acrylamide 9

Structure (SMILES)	covalent SAR by REF-based qIT analysis [1]	kinact/KI at 500 µM ([1]; fragment 0.5 mM)	other results
C=CC(=O)N1CCCc2cc(C(=O)O)ccc21 [compound 3]	complete loss of activity	–	–
C=CC(=O)N1CCN(C(C)=O)c2ccccc21 [compound 7]	loss of activity	–	–
C=CC(=O)N1CCN(C)c2cc(C(=O)OC)ccc21 [compound 10]	less Cdk2(ES) selective	1.91 M⁻¹ s⁻¹	–
C=CC(=O)N1CCN(CC2CC2)c2cc(C(=O)OC)ccc21 [compound 11]	significant improvement in REF	19.5 M⁻¹ s⁻¹	fold increase in REF [1, 3]: 4.3 fold; fold increase in kinact/Ki (Cdk2(ES); [3]): 3.7 fold; kinact/KI (Cdk2(ES)): 17.7 M⁻¹ s⁻¹; Ki (Cdk2(ES)): 102 µM; kinact (Cdk2(ES)): 0.00181 s⁻¹
C=CC(=O)N1CCN(CC)c2cc(C(=O)OC)ccc21 [compound 9]	–	8.48 M⁻¹ s⁻¹	rate of reaction with Cdk2(ES) relative to acrylamide 1 ([1]; qIT): six times faster than acrylamide 1; rate enhancement factor (REF) ([1]; rate with Cdk2(ES) relative to rate with GSH, fragment 0.5 mM, thiol 5 μM): 182; kinact/KI (Cdk2(ES)): 4.76 M⁻¹ s⁻¹; Ki (Cdk2(ES)): 416 µM; kinact (Cdk2(ES)): 0.00198 s⁻¹
C=CC(=O)N1CCn2c1nc1ccccc12 [compound 2]	–	0.68 M⁻¹ s⁻¹	GSH: kobs/[I] [2]: 5.34 M⁻¹ s⁻¹
C=CC(=O)N1CCCc2cc(C(N)=O)ccc21 [compound 4]	complete loss of activity	–	–
C#CCNC(=O)c1ccc2c(c1)CCCN2C(=O)C=C [compound 5]	well tolerated	–	–
C=CC(=O)N1CCc2cc(C(=O)OC)ccc21 [compound 8]	tenfold loss in REF	–	–
